Data: US10829501B2 (BRISTOL-MYERS SQUIBB COMPANY, priority 2016, dated 2020)
Counter-ions that a name gives are not always drawn. Like-named read-outs stand apart in the source and are kept apart here.

Target: ROCK2 (Homo sapiens, UniProt O75116)
Assay: ROCK2 kinase inhibition assay (LABCHIP 3000 Reader, FITC peptide substrate);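 also: rho kinase reaction read by separating phosphorylated from unphosphorylated peptide on chip, with inhibition of kinase activity computed per concentration across a dose-response series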
[1] = read-out: ROCK2 Activity (ROCK2 IC50), 5 μM ATP, 1.5 μM peptide substrate, pH 7.5

ROCK2, sequence (O75116 whole entry, species assumed): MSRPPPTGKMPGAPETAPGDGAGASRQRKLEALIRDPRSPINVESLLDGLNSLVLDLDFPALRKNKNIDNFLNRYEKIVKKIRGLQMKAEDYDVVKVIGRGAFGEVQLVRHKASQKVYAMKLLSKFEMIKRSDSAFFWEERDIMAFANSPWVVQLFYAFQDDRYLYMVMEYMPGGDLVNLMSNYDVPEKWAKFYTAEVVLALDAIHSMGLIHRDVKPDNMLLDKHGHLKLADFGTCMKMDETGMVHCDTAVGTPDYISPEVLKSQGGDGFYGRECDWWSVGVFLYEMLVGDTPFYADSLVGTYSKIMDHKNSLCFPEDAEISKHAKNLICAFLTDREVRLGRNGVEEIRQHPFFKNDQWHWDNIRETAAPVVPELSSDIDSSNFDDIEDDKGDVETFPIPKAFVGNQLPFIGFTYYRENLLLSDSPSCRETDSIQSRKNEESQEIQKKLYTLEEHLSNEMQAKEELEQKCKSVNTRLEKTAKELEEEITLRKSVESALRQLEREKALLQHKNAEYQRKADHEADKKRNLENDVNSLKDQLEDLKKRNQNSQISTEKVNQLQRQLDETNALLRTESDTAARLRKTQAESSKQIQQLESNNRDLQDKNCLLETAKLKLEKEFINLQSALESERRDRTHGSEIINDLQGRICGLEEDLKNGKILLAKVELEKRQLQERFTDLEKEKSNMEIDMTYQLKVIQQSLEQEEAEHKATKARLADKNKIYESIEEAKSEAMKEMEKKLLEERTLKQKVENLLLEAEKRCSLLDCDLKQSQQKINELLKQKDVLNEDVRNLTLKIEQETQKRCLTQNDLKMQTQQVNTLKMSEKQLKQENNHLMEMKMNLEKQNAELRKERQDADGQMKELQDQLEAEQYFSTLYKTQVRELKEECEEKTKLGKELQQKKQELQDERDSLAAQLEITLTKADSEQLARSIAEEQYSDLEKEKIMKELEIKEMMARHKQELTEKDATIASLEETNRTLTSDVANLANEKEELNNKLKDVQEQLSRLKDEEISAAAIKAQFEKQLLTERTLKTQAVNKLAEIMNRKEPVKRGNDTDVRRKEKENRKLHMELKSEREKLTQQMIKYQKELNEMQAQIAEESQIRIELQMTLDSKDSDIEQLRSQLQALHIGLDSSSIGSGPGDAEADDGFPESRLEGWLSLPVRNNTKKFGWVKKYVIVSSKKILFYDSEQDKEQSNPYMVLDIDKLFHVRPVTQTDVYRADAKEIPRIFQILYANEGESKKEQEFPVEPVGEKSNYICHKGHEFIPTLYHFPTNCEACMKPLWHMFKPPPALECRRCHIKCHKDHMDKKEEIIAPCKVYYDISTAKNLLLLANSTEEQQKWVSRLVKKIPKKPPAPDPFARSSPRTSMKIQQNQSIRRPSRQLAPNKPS

| SMILES | IC50 [nM] | IC50 [1] [nM] |
| --- | --- | --- |
| CC(C)(C(N)=O)n1nc(C(=O)N[C@H]2CC3(C2)C[C@H](Oc2ncccc2C(N)=O)C3)c2ccc(-c3cnn(C(F)F)c3)cc21 (stereo partly drawn) [Example 409, 1-(1-amino-2-methyl-1-oxopropan-2-yl)-N-((aR)-6-((3-carbamoylpyridin-2-yl)oxy)spiro[3.3]heptan-2-yl)-6-(1-(difluoromethyl)-1H-pyrazol-4-yl)-1H-indazole-3-carboxamide, TFA] | < 5 | – |
| [H][C@]1(Oc2ncccc2C(N)=O)C[C@@]2(C[C@H](NC(=O)c3nn(C(C)(C)C(N)=O)c4cc(OCCC(F)(F)F)ccc34)C2)C1 (stereo partly drawn) [Example 410, 1-(1-amino-2-methyl-1-oxopropan-2-yl)-N-((aR)-6-((3-carbamoylpyridin-2-yl)oxy)spiro[3.3]heptan-2-yl)-6-(3,3,3-trifluoropropoxy)-1H-indazole-3-carboxamide, TFA] | 5 to 50 | – |
| [H][C@]1(Oc2ncccc2C(N)=O)C[C@@]2(C[C@H](NC(=O)c3nn(C(C)(C)C#N)c4cc(OCCC(F)(F)F)ccc34)C2)C1 (stereo partly drawn) [Example 411, N-((aR)-6-((3-carbamoylpyridin-2-yl)oxy)spiro[3.3]heptan-2-yl)-1-(2-cyanopropan-2-yl)-6-(3,3,3-trifluoropropoxy)-1H-indazole-3-carboxamide, TFA] | 5 to 50 | – |
| CC(C)(O)COc1ccc2c(C(=O)N[C@H]3CC4(C3)C[C@H](Oc3ncccc3C(N)=O)C4)nn(C(C)(C)C(N)=O)c2c1 (stereo partly drawn) [Example 412, 1-(1-amino-2-methyl-1-oxopropan-2-yl)-N-((aR)-6-((3-carbamoylpyridin-2-yl)oxy)spiro[3.3]heptan-2-yl)-6-(2-hydroxy-2-methylpropoxy)-1H-indazole-3-carboxamide, TFA] | 5 to 50 | – |
| NC(=O)c1cccnc1O[C@H]1CC2(C[C@H](NC(=O)c3cnn4cc(OCC5(O)CC(F)(F)C5)ccc34)C2)C1 (stereo partly drawn) [Example 413, N-((aR)-6-((3-carbamoylpyridin-2-yl)oxy)spiro[3.3]heptan-2-yl)-6-((3,3-difluoro-1-hydroxycyclobutyl)methoxy)pyrazolo[1,5-a]pyridine-3-carboxamide, TFA] | 5 to 50 | – |
| NC(=O)c1cccnc1O[C@H]1CC2(C[C@H](NC(=O)c3cnn4c(C5CC5)c(OCC5(O)CC(F)(F)C5)ccc34)C2)C1 (stereo partly drawn) [Example 415, N-((aR)-6-((3-carbamoylpyridin-2-yl)oxy)spiro[3.3]heptan-2-yl)-7-cyclopropyl-6-((3,3-difluoro-1-hydroxycyclobutyl)methoxy)pyrazolo[1,5-a]pyridine-3-carboxamide, TFA] | < 5 | – |
| CN(C)Cc1nc(C(=O)N[C@H]2CC3(C2)C[C@H](Oc2ncccc2C(N)=O)C3)c2ccc(OCc3ccccc3)cn12 (stereo partly drawn) [Example 416, 6-(benzyloxy)-N-((aR)-6-((3-carbamoylpyridin-2-yl)oxy)spiro[3.3]heptan-2-yl)-3-((dimethylamino)melhyl)imidazo[1,5-a]pyridine-1-carboxamide, TFA] | 5 to 50 | – |
| NC(=O)c1cccnc1OC1CC2(CC(NC(=O)c3cnc(-c4ccc(S(=O)(=O)C5CC5)cc4)s3)C2)C1 [Example 417, N-((aR)-6-((3-carbainoylpyridin-2-yl)oxy)spiro[3.3]heptan-2-yl)-2-(4-(cyclopropylsulfonyl)phenyl)thiazole-5-carboxamide, TFA] | 5 to 50 | – |
| N#Cc1ccc(-c2ncc(C(=O)NC3CC4(C3)CC(Oc3ncccc3C(N)=O)C4)s2)cc1 [Example 418, N-((aR)-6-((3-carbamoylpyridin-2-yl)oxy)spiro[3.3]heptan-2-yl)-2-(4-cyanophenyl)thiazole-5-carboxamide, TFA] | 5 to 50 | – |
| CNC(=O)c1ccc(-c2ncc(C(=O)NC3CC4(C3)CC(Oc3ncccc3C(N)=O)C4)s2)cc1F [Example 419, N-((aR)-6-((3-carbamoylpyridin-2-yl)oxy)spiro[3.3]heptan-2-yl)-2-(3-fluoro-4-(methylcarbamoyl)phenyl)thiazole-5-carboxamide, TFA] | 50 to 250 | – |
| N#Cc1cccc(-c2ncc(C(=O)NC3CC4(C3)CC(Oc3ncccc3C(N)=O)C4)s2)c1 [Example 420, N-((aR)-6-((3-carbamoylpyridin-2-yl)oxy)spiro[3.3]heptan-2-yl)-2-(3-cyanophenyl)thiazole-5-carboxamide, TFA] | 5 to 50 | – |
| NC(=O)c1cccnc1OC1CC2(CC(NC(=O)c3nc(Br)n4ccccc34)C2)C1 [Example 421, 3-bromo-N-((aR)-6-((3-carbamoylpyridin-2-yl)oxy)spiro[3.3]heptan-2-yl)imidazo[1,5-a]pyridine-1-carboxamide] | – | 5 to 50 |
| CN1CCN(c2cc(C(=O)NC3CC4(C3)CC(Oc3ncccc3C(N)=O)C4)cc(C(F)(F)F)c2)CC1 [Example 422, 2-(((aR)-6-(3-(4-methylpiperazin-1-yl)-5-(trifluoromethyl)benzamido)spiro[3.3]heptan-2-yl)oxy)nicotinamide] | – | 5 to 50 |
| CC(C)(C)c1cccc(C(=O)NC2CC3(C2)CC(Oc2ncccc2C(N)=O)C3)c1 [Example 423, 2-(((aR)-6-(3-(tert-butyl)benzamido)spiro[3.3]heptan-2-yl)oxy)nicotinamide] | – | 5 to 50 |
| Cn1cc2c(C(=O)NC3CC4(C3)CC(Oc3ncccc3C(N)=O)C4)cc(Br)cc2n1 [Example 424, 6-bromo-N-((aR)-6-((3-carbamoylpyridin-2-yl)oxy)spiro[3.3]heptan-2-yl)-2-methyl-2H-indazole-4-carboxamide] | – | 5 to 50 |
| Cn1ncc2c(C(=O)NC3CC4(C3)CC(Oc3ncccc3C(N)=O)C4)cc(Br)cc21 [Example 425, 6-bromo-N-((aR)-6-((3-carbamoylpyridin-2-yl)oxy)spiro[3.3]heptan-2-yl)-1-methyl-1H-indazole-4-carboxamide] | – | 5 to 50 |
| NC(=O)c1cccnc1OC1CC2(CC(NC(=O)c3cc(C(F)(F)F)cc4c3NC(=O)OC4)C2)C1 [Example 426, N-((aR)-6-((3-carbamoylpyridin-2-yl)oxy)spiro[3.3]heptan-2-yl)-2-oxo-6-(trifluoromethyl)-1,4-dihydro-2H-benzo[d][1,3]oxazine-8-carboxamide] | – | 5 to 50 |
| NC(=O)c1cccnc1OC1CC2(CC(NC(=O)c3cc(Br)cc(C(F)(F)F)c3)C2)C1 [Example 427, 2-(((aR)-6-(3-bromo-5-(trifluoromethyl)benzamido)spiro[3.3]heptan-2-yl)oxy)nicotinamide] | – | 5 to 50 |
| Cn1cc(-c2cc(C(=O)NC3CC4(C3)CC(Oc3ncccc3C(N)=O)C4)cc(C(F)(F)F)c2)cn1 [Example 428, 2-(((aR)-6-(3-(1-methyl-1H-pyrazol-4-yl)-5-(trifluoromethyl)benzamido)spiro[3.3]heptan-2-yl)oxy)nicotinamide] | – | < 5 |
| NC(=O)c1cccnc1OC1CC2(CC(NC(=O)c3nc(C(F)(F)F)n4cc(Br)ccc34)C2)C1 [Example 429, 6-bromo-N-((aR)-6-((3-carbamoylpyridin-2-yl)oxy)spiro[3.3]heptan-2-yl)-3-(trifluoromethyl)imidazo[1,5-a]pyridine-1-carboxamide] | – | 5 to 50 |
| NC(=O)c1cccnc1OC1CC2(CC(NC(=O)c3nc(C(F)(F)F)n4ccccc34)C2)C1 [Example 430, N-((aR)-6-((3-carbamoylpyridin-2-yl)oxy)spiro[3.3]heptan-2-yl)-3-(trifluoromethyl)imidazo[1,5-a]pyridine-1-carboxamide] | – | 5 to 50 |
